Measured values taken from PMC11195807, “Development of a multi-targeted chemotherapeutic approach based on G-quadruplex stabilisation and carbonic anhydrase inhibition” (Journal of Enzyme Inhibition and Medicinal Chemistry, 2024).
Several values for one entry are separate records, joined by “and”; a condition that tells them apart may be missing. Identical values can stand only once.

Columns and labels:
hCA I = target: T1, hCA I (Homo sapiens, UniProt P00915); experiment: stopped-flow CO2 hydrase assay, hCA I; assay type: biochemical
T1 construct: made in house
T1 sequence (P00915 whole entry): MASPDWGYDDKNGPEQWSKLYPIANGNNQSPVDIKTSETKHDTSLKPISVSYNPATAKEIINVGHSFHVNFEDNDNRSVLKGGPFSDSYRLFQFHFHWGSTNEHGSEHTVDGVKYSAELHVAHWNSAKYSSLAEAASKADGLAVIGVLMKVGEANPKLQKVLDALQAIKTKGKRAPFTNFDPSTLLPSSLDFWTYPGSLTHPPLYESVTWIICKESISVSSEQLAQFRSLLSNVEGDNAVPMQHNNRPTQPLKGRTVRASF
Protocol: (§1) An Applied Photophysics stopped-flow instrument has been used for assaying the CA-catalysed CO2 hydration activity, as reported earlier. The enzyme concentrations were in the range 5–12 nM. All hCA isoforms were recombinant proteins, being obtained in-house as reported earlier.

hCA II = target: T2, hCA II (Homo sapiens, UniProt P00918); experiment: stopped-flow CO2 hydrase assay, hCA II; assay type: biochemical
T2 construct: made in house
Source text: . The structure-activity relationship is discussed separately for the two compound subsets. Another code pattern is included for the MTDLs in Table 1, which indicates the derivative CAI type (sulphonamide, S or coumarin, C) and the number of atoms in the spacers connecting either berberine and the triazole (carbon atoms) or the triazole and the benzenesulfonamide/coumarin scaffolds (carbon or oxygen atoms).
as §1

hCA IX = target: T3, hCA IX (Homo sapiens, UniProt Q16790); experiment: stopped-flow CO2 hydrase assay, hCA IX; assay type: biochemical; conditions: for Selectivity index (SI) I/IX: hCA IX over hCA I; for Selectivity index (SI) II/IX: hCA IX over hCA II; for Ki: mean ± SEM of three assays
T3 construct: made in house
Source text: (§2) An Applied Photophysics stopped-flow instrument has been used for assaying the CA-catalysed CO2 hydration activity, as reported earlier. […] All hCA isoforms were recombinant proteins, being obtained in-house as reported earlier.

hCA XII = target: T4, hCA XII (Homo sapiens, UniProt O43570); experiment: stopped-flow CO2 hydrase assay, hCA XII; assay type: biochemical; conditions: for Selectivity index (SI) I/XII: hCA XII over hCA I; for Selectivity index (SI) II/XII: hCA XII over hCA II; for Ki: mean ± SEM of three assays
T4 construct: made in house
T4 sequence (O43570 25-354): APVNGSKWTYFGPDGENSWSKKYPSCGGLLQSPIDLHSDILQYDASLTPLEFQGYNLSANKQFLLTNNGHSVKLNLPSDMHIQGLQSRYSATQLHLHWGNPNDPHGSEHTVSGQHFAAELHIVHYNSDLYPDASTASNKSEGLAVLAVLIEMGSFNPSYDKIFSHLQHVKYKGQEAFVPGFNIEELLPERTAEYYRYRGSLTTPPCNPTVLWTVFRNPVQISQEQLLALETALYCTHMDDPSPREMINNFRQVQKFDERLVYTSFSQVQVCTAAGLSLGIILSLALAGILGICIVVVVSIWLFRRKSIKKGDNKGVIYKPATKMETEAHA
Source text: as §2

Tel23 = experiment: CD melting experiments, Tel23 GQ; assay type: binding, human; conditions: for ΔT1/2 Tel23: 2 molar equiv compound, T1/2 of DNA alone 53.5 °C; for ΔΔT1/2 Tel23: ΔT1/2 of compound minus ΔT1/2 of berberine, 2 molar equiv
Source text: (§3) The 21 synthesised MTDLs were screened for their ability to bind to and stabilise DNA GQ-forming sequences, compared to berberine, by CD experiments. Indeed, circular dichroism has shown to be outstandingly useful and informative for noncanonical nucleic acid secondary structures. For this purpose, a G-rich 23-nucleotide truncation (23-nt) of the human telomeric sequence (Tel23) and two G-rich motifs from the promoter regions of c-KIT (c-Kit1) and c-MYC (c-Myc) oncogenes were employed. First, the overall topology adopted by each DNA sequence in K^+-containing buffer was verified by CD spectra. […] GQ conformation (Figure S1, Supporting Information). On the other hand, c-Kit1 and c-Myc sequences adopted a parallel GQ conformation, showing a distinctive positive band at around 260 nm and a negative one at ∼240 nm in their CD spectra (Figures S2 and S3, Supporting Information).
(§4) Afterwards, the GQ-stabilising properties of the molecules were assessed by CD melting experiments, measuring the differences in the apparent melting temperatures of the DNA in the presence and absence of compounds (ΔT1/2) (Figures S4–S6 and Table S2, Supporting Information). […] This could be explained by considering the higher accessibility of the external G-tetrads in the case of parallel GQs compared to the hybrid one[52], which would allow the additional CAI moiety of conjugated compounds to be better accommodated in the binding site. […] . […] .

c-Kit1 = experiment: CD melting experiments, c-Kit1 GQ; assay type: binding; conditions: for ΔT1/2 c-Kit1: 2 molar equiv compound, T1/2 of DNA alone 55.0 °C; for ΔΔT1/2 c-Kit1: ΔT1/2 of compound minus ΔT1/2 of berberine, 2 molar equiv
Source text: as §3, §4

c-Myc = experiment: CD melting experiments, c-Myc GQ; assay type: binding; conditions: for ΔΔT1/2 c-Myc: ΔT1/2 of compound minus ΔT1/2 of berberine, 1 molar equiv; for ΔT1/2 c-Myc: 1 molar equiv compound, T1/2 of DNA alone 70.0 °C
Source text: as §3, §4

Hairpin = experiment: CD melting experiments, hairpin DNA duplex; conditions: 2 molar equiv compound, T1/2 of DNA alone 66.0 °C
Protocol: To evaluate the possible binding and stabilisation of double-stranded DNA, a 27-nt long hairpin-forming sequence (Hairpin) was employed.
In particular, the following DNA sequences were synthesised and employed for the experiments: d([sequence]) (c-Kit1), d([sequence]) (c-Myc), d([sequence]) (Tel23), and d([sequence]) (Hairpin). Oligonucleotides were dissolved in the proper buffer and their concentration was measured by UV absorption at 90 °C, as previously reported[80]^,[81]. To achieve the correct folding of the sequences, the DNA solutions were heated in a water bath at 90 °C for 5 min, and then allowed to cool slowly to room temperature overnight. Then, DNA samples were stored at 4 °C for 24 h, before data acquisition.
The samples were prepared by dissolving the oligonucleotides in 5 mM KH2PO4/K2HPO4 buffer (pH 7.0) containing 20 mM KCl (or LiCl in the case of c-Myc because of its high thermal stability). DNA concentrations of 20 µM for GQs and 30 µM for Hairpin were used. For each compound, a 10 mM stock solution in 100% DMSO was prepared. […] CD spectra were acquired at 20 and 100 °C, in the 230–320 nm wavelength range, averaged over three scans and subtracted of the buffer baseline. The scanning speed was set to 100 nm/min, with a 0.5 s response time, and 1 nm bandwidth. CD melting experiments were carried out in the 20–100 °C temperature range, with 1 °C/min heating rate, by following changes in the CD signal at the wavelengths of the maximum CD intensity (i.e. 263 nm for c-Kit1 and c-Myc, and 290 nm for Tel23). As for Hairpin, CD melting curves were recorded by following the changes in the CD signal at 252 nm (the wavelength of the minimum CD intensity). CD melting curves were normalised between 0 and 1. […] The ΔT1/2 values correspond to the difference in the T1/2 values of the nucleic acid structures in the presence and absence of the compounds. All experiments were performed in duplicate, and the reported values are the mean of the two measurements.

[1] = sulphonamides, inhibitor-enzyme incubation 15 min, mean ± SEM of three assays
[2] = sulphonamides, inhibitor-enzyme incubation 15 min
[3] = coumarins, inhibitor-enzyme incubation 6 h

COc1ccc2cc3[n+](cc2c1OCc1cn(-c2cccc(S(N)(=O)=O)c2)nn1)CCc1cc2c(cc1-3)OCO2 [Compound 40, 10-Methoxy-9-((1–(3-sulfamoylphenyl)-1H-1,2,3-triazol-4-yl)methoxy)-5,6-dihydro-[1,3]dioxolo[4,5-g]isoquinolino[3,2-a]isoquinolin-7-ium hexafluorophosphate]
Ki (hCA I; [1]): 3670 ± 22 nM
Ki (hCA II; [1]): 90.1 ± 5.6 nM
Selectivity index (SI) I/IX (hCA IX): 941.1
Selectivity index (SI) II/IX (hCA IX): 23.1
Ki (hCA IX; [2]): 3.9 ± 0.2 nM
Selectivity index (SI) I/XII (hCA XII): 148.0
Selectivity index (SI) II/XII (hCA XII): 3.6
Ki (hCA XII; [2]): 24.8 ± 1.3 nM
ΔT1/2 Tel23 (Tel23): 5.5 °C
ΔΔT1/2 Tel23 (Tel23): −4.0 °C
ΔT1/2 c-Kit1 (c-Kit1): 16.0 °C
ΔΔT1/2 c-Kit1 (c-Kit1): 3.0 °C
ΔΔT1/2 c-Myc (c-Myc): >13.0 °C
ΔΔT1/2 c-Myc (c-Myc; listed as S-1,0m): > 13.0 °C
ΔT1/2 Hairpin (Hairpin): +0.2 °C

COc1ccc2cc3[n+](cc2c1OCc1cn(-c2ccc(S(N)(=O)=O)cc2)nn1)CCc1cc2c(cc1-3)OCO2 [Compound 41, 10-Methoxy-9-((1–(4-sulfamoylphenyl)-1H-1,2,3-triazol-4-yl)methoxy)-5,6-dihydro-[1,3]dioxolo[4,5-g]isoquinolino[3,2-a]isoquinolin-7-ium hexafluorophosphate]
Ki (hCA I; [1]): 829 ± 50.3 nM
Ki (hCA II; [1]): 22.9 ± 1.4 nM
Selectivity index (SI) I/IX (hCA IX): 307.1
Selectivity index (SI) II/IX (hCA IX): 8.5
Ki (hCA IX; [2]): 2.7 ± 0.2 nM
Selectivity index (SI) I/XII (hCA XII): 135.9
Selectivity index (SI) II/XII (hCA XII): 3.8
Ki (hCA XII; [2]): 6.1 ± 0.3 nM
ΔT1/2 Tel23 (Tel23): 5.5 °C
ΔΔT1/2 Tel23 (Tel23): −4.0 °C
ΔT1/2 c-Kit1 (c-Kit1): 15.0 °C
ΔΔT1/2 c-Kit1 (c-Kit1): 2.0 °C
ΔT1/2 c-Myc (c-Myc): 14.5 °C
ΔΔT1/2 c-Myc (c-Myc): 2.5 °C
ΔT1/2 Hairpin (Hairpin): +2.5 °C

COc1ccc2cc3[n+](cc2c1OCc1cn(CCCOc2ccc4ccc(=O)oc4c2)nn1)CCc1cc2c(cc1-3)OCO2 [Compound 42, 10-Methoxy-9-((1–(3-((2-oxo-2H-chromen-7-yl)oxy)propyl)-1H-1,2,3-triazol-4-yl)methoxy)-5,6-dihydro-[1,3]dioxolo[4,5-g]isoquinolino[3,2-a]isoquinolin-7-ium hexafluorophosphate]
Ki (hCA I; [3]): > 100000 nM
Ki (hCA II; [3]): > 100000 nM
Ki (hCA IX; [3]): 35.1 ± 2.8 nM
Selectivity index (SI) I/IX (hCA IX): > 284.9
Selectivity index (SI) II/IX (hCA IX): > 284.9
Ki (hCA XII; [3]): 10.2 ± 0.8 nM
Selectivity index (SI) I/XII (hCA XII): > 980.4
Selectivity index (SI) II/XII (hCA XII): > 980.4
ΔT1/2 Tel23 (Tel23): 10.5 °C
ΔΔT1/2 Tel23 (Tel23): 1.0 °C
ΔT1/2 c-Kit1 (c-Kit1): 17.0 °C
ΔΔT1/2 c-Kit1 (c-Kit1): 4.0 °C
ΔT1/2 c-Myc (c-Myc): 16.0 °C
ΔΔT1/2 c-Myc (c-Myc): 4.0 °C
ΔT1/2 Hairpin (Hairpin): +0.5 °C

COc1ccc2cc3[n+](cc2c1OCc1cn(CCCCOc2ccc4ccc(=O)oc4c2)nn1)CCc1cc2c(cc1-3)OCO2 [Compound 43, 10-Methoxy-9-((1–(4-((2-oxo-2H-chromen-7-yl)oxy)butyl)-1H-1,2,3-triazol-4-yl)methoxy)-5,6-dihydro-[1,3]dioxolo[4,5-g]isoquinolino[3,2-a]isoquinolin-7-ium hexafluorophosphate]
Ki (hCA I; [3]): > 100000 nM
Ki (hCA II; [3]): > 100000 nM
Ki (hCA IX; [3]): 25.5 ± 1.5 nM
Selectivity index (SI) I/IX (hCA IX): > 392.2
Selectivity index (SI) II/IX (hCA IX): > 392.2
Ki (hCA XII; [3]): 4.2 ± 0.3 nM
Selectivity index (SI) I/XII (hCA XII): > 2381
Selectivity index (SI) II/XII (hCA XII): > 2381
ΔT1/2 Tel23 (Tel23): 7.0 °C
ΔΔT1/2 Tel23 (Tel23): −2.5 °C
ΔT1/2 c-Kit1 (c-Kit1): 16.5 °C
ΔΔT1/2 c-Kit1 (c-Kit1): 3.5 °C
ΔT1/2 c-Myc (c-Myc): 14.0 °C
ΔΔT1/2 c-Myc (c-Myc): 2.0 °C
ΔT1/2 Hairpin (Hairpin): -0.5 °C

COc1ccc2cc3[n+](cc2c1OCc1cn(CCCCCOc2ccc4ccc(=O)oc4c2)nn1)CCc1cc2c(cc1-3)OCO2 [Compound 44, 10-Methoxy-9-((1–(5-((2-oxo-2H-chromen-7-yl)oxy)pentyl)-1H-1,2,3-triazol-4-yl)methoxy)-5,6-dihydro-[1,3]dioxolo[4,5-g]isoquinolino[3,2-a]isoquinolin-7-ium hexafluorophosphate]
Ki (hCA I; [3]): > 100000 nM
Ki (hCA II; [3]): > 100000 nM
Ki (hCA IX; [3]): 9.6 ± 0.5 nM
Selectivity index (SI) I/IX (hCA IX): > 1041
Selectivity index (SI) II/IX (hCA IX): > 1041
Ki (hCA XII; [3]): 14.5 ± 0.9 nM
Selectivity index (SI) I/XII (hCA XII): > 689.7
Selectivity index (SI) II/XII (hCA XII): > 689.7
ΔT1/2 Tel23 (Tel23): 7.5 °C
ΔΔT1/2 Tel23 (Tel23): −2.0 °C
ΔT1/2 c-Kit1 (c-Kit1): 17.5 °C
ΔΔT1/2 c-Kit1 (c-Kit1): 4.5 °C
ΔΔT1/2 c-Myc (c-Myc): >13.0 °C
ΔΔT1/2 c-Myc (c-Myc; listed as C-1,6): > 13.0 °C
ΔT1/2 Hairpin (Hairpin): +1.0 °C

COc1ccc2cc3[n+](cc2c1OCc1cn(-c2ccc4c(C)cc(=O)oc4c2)nn1)CCc1cc2c(cc1-3)OCO2 [Compound 45, 10-Methoxy-9-((1–(4-methyl-2-oxo-2H-chromen-7-yl)-1H-1,2,3-triazol-4-yl)methoxy)-5,6-dihydro-[1,3]dioxolo[4,5-g]isoquinolino[3,2-a]isoquinolin-7-ium hexafluorophosphate]
Ki (hCA I; [3]): > 100000 nM
Ki (hCA II; [3]): > 100000 nM
Ki (hCA IX; [3]): 51.5 ± 3.6 nM
Selectivity index (SI) I/IX (hCA IX): > 194.2
Selectivity index (SI) II/IX (hCA IX): > 194.2
Ki (hCA XII; [3]): 5.4 ± 0.3 nM
Selectivity index (SI) I/XII (hCA XII): > 1852
Selectivity index (SI) II/XII (hCA XII): > 1852
ΔT1/2 Tel23 (Tel23): 7.0 °C
ΔΔT1/2 Tel23 (Tel23): −2.5 °C
ΔT1/2 c-Kit1 (c-Kit1): 16.5 °C
ΔΔT1/2 c-Kit1 (c-Kit1): 3.5 °C
ΔΔT1/2 c-Myc (c-Myc): >13.0 °C
ΔΔT1/2 c-Myc (c-Myc; listed as C-1,0c): > 13.0 °C
ΔT1/2 Hairpin (Hairpin): +2.5 °C

COc1ccc2cc3[n+](cc2c1OCCCS(N)(=O)=O)CCc1cc2c(cc1-3)OCO2 [Compound 47, 10-methoxy-9–(3-sulfamoylpropoxy)-5,6-dihydro-[1,3]dioxolo[4,5-g]isoquinolino[3,2-a]isoquinolin-7-ium hexafluorophosphate]
Ki (hCA I; [1]): 75.1 ± 5.4 nM
Ki (hCA II; [1]): 21.5 nM and 22.1 nM
Selectivity index (SI) I/IX (hCA IX): 4.2
Selectivity index (SI) II/IX (hCA IX): 1.2
Ki (hCA IX; [2]): 17.8 ± 0.9 nM
Selectivity index (SI) I/XII (hCA XII): 2.1
Selectivity index (SI) II/XII (hCA XII): 0.6
Ki (hCA XII; [2]): 35.9 ± 2.1 nM
ΔT1/2 Tel23 (Tel23): 6.5 °C
ΔΔT1/2 Tel23 (Tel23): −3.0 °C
ΔT1/2 c-Kit1 (c-Kit1): 15.5 °C
ΔΔT1/2 c-Kit1 (c-Kit1): 2.5 °C
ΔT1/2 c-Myc (c-Myc): 12.5 °C
ΔΔT1/2 c-Myc (c-Myc): 0.5 °C
ΔT1/2 Hairpin (Hairpin): +2.0 °C
